Measurements as given in patent US20260200990A1, “MODIFIED LONG PEPTIDES SUITABLE FOR USE IN IMMUNISATION” (ISABELLA PHARMA B.V., priority 2022, published 2026).
Ends that are not written are not given here.

System: T cells cultured from PBMC from healthy donors
Test: T cell induction by PRAME-based SLPs, IFNy ELISpot (test 1 and test 2)
Set-up: species or system human; key to ELISPOT IFNy / ELISPOT IFNy, summary of the results in the table: − (negative); + (positive); When at least one donor had a positive response, this is denoted as POS
Details: for ELISPOT IFNy, summary of the results in the table: Table 5, all donors; for IFNy response in in vitro human T cell cultures: summary over the donors tested
Description: The capacity of human-PRAME-based SLPs to activate T cells was studied. The biological activity of the synthesized and purified SLPs was tested using PBMC from healthy donors. Monocytes were isolated using anti-CD14 beads by magnet activated cell sorting (MACS) following the protocol of the supplier (Miltenyi Biotec). In short, PBMCs were isolated by centrifugation over a Ficoll gradient and cryopreserved. To generate dendritic cells (DCs), approximately […] thawed PBMC were used for the isolation of CD14 positive cells. The cells were cultured for three days at 37° C. in 2 ml/well of IMDM 4% human serum (HS) containing 800 U/ml GM-CSF and 500 U/ml IL-4 (Peprotech). After 3 days 1 mL/well of IMDM 4% HS with GM-CSF (2400 U/mL) and IL-4 (1500 U/mL) was added to the monocytes-derived DCs and these adhered cells were cultured for an additional 3 days. On day 6, long peptides distributed over 2 pools were added to monocyte-derived DCs of naive donors at a 13 μM concentration and incubated overnight at 37° C. The next day (day 7) peptide-loaded DCs were harvested, irradiated (1000 rad), washed and mixed in a 1:10 ratio with autologous PBMC in IMDM 8% human serum in the presence of IL-7 (10 ng/ml) and IL-12p70 (100 μg/mL).
On day 10 new DCs were generated and loaded, after 6 days, with SLPs on day 16 as described above. The next day, these peptide-loaded DCs were harvested, irradiated (1000 rad) and washed. Also the cultured T cells were harvested. Both were counted and mixed in a 1:10 ratio (DC:T) in IMDM 8% human serum in the presence of IL-7 (10 ng/ml) and IL-12p70 (100 μg/mL) for the first restimulation. On the same day, new DCs were generated as described above that were loaded with SLPs on day 23 as described above. The next day, peptide-loaded DCs were harvested, irradiated (1000 rad) and washed. Also the cultured and restimulated T cells were harvested. Both were counted and mixed in a 1:10 ratio (DC:T) in IMDM 8% human serum in the presence of IL-7 (10 ng/ml) and IL-12p70 (100 μg/mL) for the second restimulation.
On this day 24, also test 1 was started in which DCs loaded with individual SLPs were cultured with harvested T cells from restimulation 1. For test 1, DCs and harvested T cells were cultured in a 1:10 ratio for 2 days after which cells were transferred to a coated ELISpot plate (see description below). On day 24, new DCs were generated as described above that were loaded with SLPs on day 30 as described above. The next day, peptide-loaded DCs were harvested, irradiated (1000 rad) and washed. Also the cultured twice restimulated T cells were harvested. Both were counted and mixed in a 1:10 ratio (DC:T) in IMDM 8% human serum in the presence of IL-2 (30 IU/mL) and IL-12p70 (100 μg/mL) for the third restimulation.
On day 31, also test 2 was started in which DCs loaded with individual SLPs were cultured with harvested T cells from restimulation 2. For test 2, DCs and harvested T cells were cultured in a 1:10 ratio for 2 days after which cells were transferred to a coated ELISpot plate (see description below).
The T cell cultures were restimulated three times in 1-week cycles using peptide loaded autologous moDCs. After the 2nd and 3rd restimulation, reactivity towards single SLPs was tested (test 1 and test 2, respectively). Reactivity was determined by measuring IFNy production using ELISpot.
For ELISpot analysis, multiscreen plates were coated with an IFNy coating antibody overnight at 4° C. The next day, the plate was washed 4× with PBS and blocking was done using IMDM 8% HS at 37° C. for at least one hour. Each sample was tested in triplicate. As a positive control, phytoheamagglutinin (PHA, 1 μg/mL) was added to cells that were not stimulated with SLP after thawing. The plate was cultured overnight at 37° C. Thereafter, cells were discarded and the plate was washed using PBS/0.05% Tween-20. The IFNy detection antibody was diluted and added to each well and incubated for 2 hours at room temperature. […]

[1] = donor BC298, Test 1, 2 peptide pools
[2] = donor BC298, Test 2, 2 peptide pools
[3] = donor BC305, Test 1, 2 peptide pools
[4] = donor BC305, Test 2, 2 peptide pools
[5] = donor BC306, Test 1, 2 peptide pools
[6] = donor BC306, Test 2, 2 peptide pools
[7] = donor BC312, Test 1, 2 peptide pools
[8] = donor BC312, Test 2, 2 peptide pools
[9] = donor BC321, Test 1, 2 peptide pools
[10] = donor BC321, Test 2, 2 peptide pools
[11] = donor BC228, Test 1, pool of 3 peptides
[12] = donor BC228, Test 2, pool of 3 peptides
[13] = donor BC303, Test 1, pool of 3 peptides
[14] = donor BC303, Test 2, pool of 3 peptides
[15] = donor BC314, Test 1, pool of 3 peptides
[16] = donor BC314, Test 2, pool of 3 peptides
[17] = donor BC320, Test 1, pool of 3 peptides
[18] = donor BC320, Test 2, pool of 3 peptides
[19] = donor BC322, Test 1, pool of 3 peptides
[20] = donor BC322, Test 2, pool of 3 peptides
[21] = donor BC323, Test 1, pool of 3 peptides
[22] = donor BC323, Test 2, pool of 3 peptides
[23] = donor BC290, Test 1, 2 peptide pools
[24] = donor BC290, Test 2, 2 peptide pools
[25] = donor BC315, Test 1, 2 peptide pools
[26] = donor BC315, Test 2, 2 peptide pools

ALYVDSLFFLRGRLDQLLRHVMNPLETLSITNCRL (ALYVDSLFFLRGRLDQLLRHVMNPLETLSITNC(cysteinyl)RL; listed as Homo sapiens) [SEQ ID NO: 40, PRAME-based SLP, cysteinylated form tested]
ELISPOT IFNy, summary of the results in the table: POS
ELISPOT IFNy [1]: −
ELISPOT IFNy [2]: −
ELISPOT IFNy [3]: −
ELISPOT IFNy [4]: −
ELISPOT IFNy [5]: −
ELISPOT IFNy [6]: −
ELISPOT IFNy [7]: −
ELISPOT IFNy [8]: −
ELISPOT IFNy [9]: +
ELISPOT IFNy [10]: +

KEGACDELFSYLIEKVKRKKNVLRL (KEGAC(cysteinyl)DELFSYLIEKVKRKKNVLRL; listed as Homo sapiens) [SEQ ID NO: 39, PRAME-based SLP, cysteinylated form tested]
ELISPOT IFNy [11]: −
ELISPOT IFNy [12]: −
ELISPOT IFNy [1]: −
ELISPOT IFNy [2]: −
ELISPOT IFNy [13]: −
ELISPOT IFNy [14]: −
ELISPOT IFNy [3]: −
ELISPOT IFNy [4]: −
ELISPOT IFNy [5]: −
ELISPOT IFNy [6]: −
ELISPOT IFNy [7]: −
ELISPOT IFNy [8]: −
ELISPOT IFNy [15]: +
ELISPOT IFNy [16]: +
ELISPOT IFNy [17]: −
ELISPOT IFNy [18]: −
ELISPOT IFNy [9]: −
ELISPOT IFNy [10]: −
ELISPOT IFNy [19]: −
ELISPOT IFNy [20]: −
ELISPOT IFNy [21]: −
ELISPOT IFNy [22]: −
IFNy response in in vitro human T cell cultures: positive IFNy response

LETFKAVLDGLDVLLAQEVRPRRWKLQVLDLRK (listed as Homo sapiens) [SEQ ID NO: 45, PRAME-based SLP of WO2008118017, reference compound]
ELISPOT IFNy [11]: −
ELISPOT IFNy [12]: −
ELISPOT IFNy [1]: −
ELISPOT IFNy [2]: −
ELISPOT IFNy [13]: −
ELISPOT IFNy [14]: −
ELISPOT IFNy [3]: −
ELISPOT IFNy [4]: −
ELISPOT IFNy [5]: −
ELISPOT IFNy [6]: −
ELISPOT IFNy [7]: −
ELISPOT IFNy [8]: −
ELISPOT IFNy [15]: −
ELISPOT IFNy [16]: −
ELISPOT IFNy [17]: −
ELISPOT IFNy [18]: −
ELISPOT IFNy [9]: −
ELISPOT IFNy [10]: −
ELISPOT IFNy [19]: −
ELISPOT IFNy [20]: −
ELISPOT IFNy [21]: −
ELISPOT IFNy [22]: −
IFNy response in in vitro human T cell cultures: did not show convincing responses

LKAMVQAWPFTCLPLGVLMKGQHLHLETFKAVL (LKAMVQAWPFTC(cysteinyl)LPLGVLMKGQHLHLETFKAVL; listed as Homo sapiens) [SEQ ID NO: 38, PRAME-based SLP, cysteinylated form tested]
ELISPOT IFNy, summary of the results in the table: POS
ELISPOT IFNy [23]: −
ELISPOT IFNy [24]: −
ELISPOT IFNy [1]: +
ELISPOT IFNy [2]: +
ELISPOT IFNy [3]: −
ELISPOT IFNy [4]: −
ELISPOT IFNy [5]: −
ELISPOT IFNy [6]: −
ELISPOT IFNy [7]: −
ELISPOT IFNy [8]: −
ELISPOT IFNy [25]: −
ELISPOT IFNy [26]: −
ELISPOT IFNy [9]: +
ELISPOT IFNy [10]: −

LLPRELFPPLFMAAFDGRHSQTLKAMVQAWPF (listed as Homo sapiens) [SEQ ID NO: 43, PRAME-based SLP]
ELISPOT IFNy [1]: −
ELISPOT IFNy [2]: −
ELISPOT IFNy [3]: −
ELISPOT IFNy [4]: −
ELISPOT IFNy [5]: −
ELISPOT IFNy [6]: −
ELISPOT IFNy [7]: −
ELISPOT IFNy [8]: −
ELISPOT IFNy [9]: +
ELISPOT IFNy [10]: −

LPSLSHCSQLTTLSFYGNSISISALQSLLQHLIGL (LPSLSHC(cysteinyl)SQLTTLSFYGNSISISALQSLLQHLIGL; listed as Homo sapiens) [SEQ ID NO: 44, PRAME-based SLP, cysteinylated form tested]
ELISPOT IFNy [1]: −
ELISPOT IFNy [2]: +
ELISPOT IFNy [3]: −
ELISPOT IFNy [4]: −
ELISPOT IFNy [5]: −
ELISPOT IFNy [6]: −
ELISPOT IFNy [7]: −
ELISPOT IFNy [8]: −
ELISPOT IFNy [9]: +
ELISPOT IFNy [10]: −

PTLAKFSPYLGQMINLRRLLLSHIHASSYISPE (listed as Homo sapiens) [SEQ ID NO: 37, PRAME-based SLP]
ELISPOT IFNy [23]: +
ELISPOT IFNy [24]: +
ELISPOT IFNy [1]: −
ELISPOT IFNy [2]: −
ELISPOT IFNy [3]: +
ELISPOT IFNy [4]: −
ELISPOT IFNy [5]: −
ELISPOT IFNy [6]: −
ELISPOT IFNy [7]: −
ELISPOT IFNy [8]: −
ELISPOT IFNy [25]: −
ELISPOT IFNy [26]: −
ELISPOT IFNy [9]: −
ELISPOT IFNy [10]: −

VLSLSGVMLTDVSPEPLQALLERASATLQDLVFDE (listed as Homo sapiens) [SEQ ID NO: 50, PRAME-based SLP of WO2008118017, reference compound]
ELISPOT IFNy [11]: −
ELISPOT IFNy [12]: −
ELISPOT IFNy [23]: −
ELISPOT IFNy [24]: −
ELISPOT IFNy [1]: −
ELISPOT IFNy [2]: −
ELISPOT IFNy [13]: −
ELISPOT IFNy [14]: −
ELISPOT IFNy [3]: −
ELISPOT IFNy [4]: −
ELISPOT IFNy [5]: −
ELISPOT IFNy [6]: −
ELISPOT IFNy [7]: −
ELISPOT IFNy [8]: −
ELISPOT IFNy [15]: −
ELISPOT IFNy [16]: −
ELISPOT IFNy [25]: −
ELISPOT IFNy [26]: −
ELISPOT IFNy [17]: −
ELISPOT IFNy [18]: −
ELISPOT IFNy [9]: −
ELISPOT IFNy [10]: −
ELISPOT IFNy [19]: −
ELISPOT IFNy [20]: −
ELISPOT IFNy [21]: −
ELISPOT IFNy [22]: −
IFNy response in in vitro human T cell cultures: did not show convincing responses

VLYPVPLESYEDIHGTLHLERLAYLHARLREL (listed as Homo sapiens) [SEQ ID NO: 41, PRAME-based SLP]
ELISPOT IFNy, summary of the results in the table: POS
ELISPOT IFNy [23]: −
ELISPOT IFNy [24]: −
ELISPOT IFNy [1]: −
ELISPOT IFNy [2]: −
ELISPOT IFNy [3]: −
ELISPOT IFNy [4]: −
ELISPOT IFNy [5]: −
ELISPOT IFNy [6]: −
ELISPOT IFNy [7]: −
ELISPOT IFNy [8]: −
ELISPOT IFNy [25]: +
ELISPOT IFNy [26]: +
ELISPOT IFNy [9]: −
ELISPOT IFNy [10]: −
